# Columns and labels:
# [1] = tested on: Mycobacterium tuberculosis; assay: Antibacterial activity against Mycobacterium tuberculosis assessed as reduction in resistance generation frequency; format: functional
# [2] = tested on: Mycobacterium tuberculosis; assay: Antibacterial activity against Mycobacterium tuberculosis Erdman (TMCC 107) assessed as reduction in resistance generation frequency; format: functional
# [3] = tested on: Mycobacterium tuberculosis; assay: Antibacterial activity against extensively drug-resistant Mycobacterium tuberculosis clinical isolate assessed as inhibition of bacterial growth in presence of SMARt-420; format: functional
# [4] = tested on: Mycobacterium tuberculosis; assay: Antibacterial activity against Mycobacterium tuberculosis Erdman (TMCC 107) in Mtb infection C3HeB/FeJ mouse model assessed as reduction in resistance generation frequency administered for 8 weeks relative to control; format: functional; parameters: scale not given: the % may be the effect or the level left
# [5] = tested on: Mycobacterium tuberculosis; assay: Antibacterial activity against multidrug-resistant Mycobacterium tuberculosis clinical isolate assessed as inhibition of bacterial growth in presence of SMARt-420; format: functional
# [6] = tested on: Mycobacterium tuberculosis; assay: Antibacterial activity against Ethionamide-resistant Mycobacterium tuberculosis Beijing strain in acute Mtb infection BALB/c mouse model assessed as reduction in log10 CFU in lungs at 50 mg/kg, po for 3 weeks in presence of Ethionamide; format: functional
# [7] = tested on: Mycobacterium tuberculosis; assay: microbe, parasite or virus in culture
# [8] = tested on: Mycobacterium tuberculosis; assay: microbe, parasite or virus in culture; remark: listed apart in the source
# [9] = tested on: Mycobacterium tuberculosis; assay: Antibacterial activity against EMB-resistant Mycobacterium tuberculosis assessed as inhibition of bacterial growth; format: functional
smiles,measurement,setting,value
Cc1ccn(C(C)c2nnc(Nc3ccn(Cc4c(F)cccc4Cl)n3)s2)n1 (stereo not drawn),Activity,[1],4 10^-8No_unit
CCNC(=N)NC(=O)Nc1c(CC)cccc1CC,Activity,[1],>1.5 log10CFU
Cc1n[nH]c2ccc(NS(=O)(=O)CCCCF)cc12,Activity,[1],6 10^-8No_unit
CCS(=O)(=O)N1N=Cc2ccc(Oc3ccc(C(F)(F)F)cc3/C=N/O)cc2B1O,Activity,[2],4 10^-7No_unit
same,MIC,[3],0.15 µM
same,Activity,[4],0.04%
same,MIC,[5],0.15 µM
O=C(CCC(F)(F)F)N1CCC2(CC1)CC(c1ccccc1)=NO2,Activity,[6],4 log10CFU
CCc1cc(C(N)=S)ccn1 [ETHIONAMIDE],MIC,[7],48 µM
same,MIC,[8],48 µM
NNC(=O)c1ccncc1 [ISONIAZID],Activity,[1],4 10^-5No_unit
same,Activity,[4],29%
CC(C)=CCC/C(C)=C/CNCCNC1C2CC3CC(C2)CC1C3 (stereo not drawn) [SQ109],MIC,[9],2.4 µM
